# Results reported in US8653026B2, “Treatment of type 2 diabetes with FTY720” (Diapin Therapeutics LLC, priority 2011, dated 2014).
# Assays:
# pancreatic islets = test: Islet morphology (HE and insulin immunostaining) and islet area quantification in pancreas; type: in vivo, mouse
# From the text: FIG. 7. Hematoxylin and eosin (HE) staining of pancreas from the FTY720-untreated and the treated mice. After 6 and 9 weeks of treatment, pancreases were removed from the db/db mice and embedded in paraffin. Paraffin sections (10 μm thick) were stained with HE and analyzed with a microscope (Scale bar, 50 μm).
# FIG. 8. Insulin immunostaining (green fluorescence) of the pancreatic islets. After 6 and 9 weeks treatment of FTY720, pancreases were removed from the db/db mice and embedded in paraffin. Paraffin sections (10 μm thick) were immunostained fluorescently for insulin (green color) (Scale bar 50 μm).
# FIG. 9. Stereological quantification of the islet areas in the FTY720-untreated and the FTY720-treated db/db mice. […]
# To assess islet area in pancreas after 6 weeks of treatment with FTY720, six consecutive paraffin sections (10 μm) from a pancreas (10 pancreases for the control and 9 pancreases for the FTY720-treated group) were used. All islet images on a whole section were taken by a Axioplan 2 microscope at X10 magnification, each islet area was measured by the Java-based image-processing program ImageJ (National Institutes of Health, Bethesda, Md.), and the sum of all islet areas from a section was considered to be the islet area per pancreas.
# PDX-1 = PDX-1 expression in isolated islets from db/db mice; type: in vivo, mouse; conditions: islets from FTY720-treated db/db mice
# Protocol: FIG. 14. PDX-1 expression in the isolated islets from the db/db mice with (+FTY720) or without FTY720 (−FTY720) treatment (*p=0.0006).
# (§1) Islets were isolated from pancreases removed from the 13-week-old untreated and FTY720-treated db/db mice by Liberase (Roche Diagnostics) digestion, followed by discontinuous Ficoll gradient separation and manual stereomicroscopic selection to exclude contaminating tissues (30). Isolated islets (or INS-1 cells) were cultured in the medium (composed of RPMI 1640 medium supplemented with 10% fetal bovine serum, 2 mM L-glutamine, 1% sodium pyruvate, 50 μM β-mercaptoethanol, 100 units/ml of penicillin, and 100 μg/ml of streptomycin). For treatment of INS-1 cells, the cells were plated in RPMI medium overnight and changed to Hanks' balanced salt solution containing 2 mM glucose and 0.5% FBS overnight. Then the cells were treated with various conditions in the same medium for 24 hours.
# Expression of pancreatic and duodenal homeobox 1 (PDX-1), a transcription factor, is required for pancreatic development and β-cell maturation.
# S1P3 = test: S1P receptor expression in islets from db/db mice: S1P3; type: in vivo, mouse; conditions: after FTY720 treatment of db/db mice
# From the text: FIG. 15. Expression of 4 FTY720-bound S1P receptors in the islets isolated from the db/db mice.
# FTY720 is phosphorylated in vivo to form FTY720-P that binds S1P1, S1P3, S1P4, and S1P5 but not S1P2 (25). We determined the expression of these receptors in the islets isolated from the untreated and FTY720-treated db/db mice.
# [1] = Observation of cancer formation during the study; type: in vivo, mouse; conditions: during the course of this invention, 10 mg/kg
# From the text: There are several advantages of the present invention. First, FTY720 is a FDA approved medicine for the treatment of patients with relapsing multiple sclerosis (MS) and its safety profile has been well studied during the clinical trial for treatment of relapsing MS, including more than 4,500 patient years of experience, with some patients in their seventh year of treatment. Second, FTY720 is an orally taken therapy and easy to take by patients, compared with insulin and GLP-1 analog therapies that have to be injected into body either by healthcare professionals or by patients themselves. […] Finally, although FTY720 promotes beta-cell regeneration, the risk of tumorigenesis is low.
# Bcl-xL = Bcl-xL mRNA levels in islets of db/db mice; type: in vivo, mouse; conditions: islets from FTY720-treated db/db mice vs untreated
# Protocol: FIG. 10B. Levels of Bcl-xL mRNA levels of the db/db mice with (+FTY720) or without FTY720 (−FTY720) treatment. *p=0.002
# as §1
# To determine the mechanism of action (MOA) behind the increase in beta-cell mass observed in the treated mice, beta-cell survival was examined.
# [2] = test system: isolated pancreatic islets; test: Glucose-stimulated insulin secretion by isolated normal islets ex vivo; type: cell-based, mouse; conditions: islets from 8 weeks old normal C57/BL6 mice, 0.2 μM FTY720, 24 hours
# Protocol: Islets were isolated from 8 weeks old normal C57/BL6 mice and treated with or without 0.2 μM FTY720 in the culture medium without FBA for 24 hours. Then the islets were stimulated with glucose and secreted insulin was measured using an Ultra Sensitive Mouse Insulin ELISA Kit (Crystal Chem Inc., Downers Grove, Ill.) and total proteins of islets were measured.
# db/db mice = test: Insulin tolerance test; type: in vivo, mouse
# Protocol: FIG. 5B. Insulin tolerance test (ITT). db/db mice with or without FTY720 treatment were fasted for 6 hours, and injected intraperitoneally with human regular insulin (0.55 U/kg) (Sigma), […] Open circle (∘), FTY720-untreated group; solid circle (●), FTY720-treated group. *p<0.05.
# For the glucose tolerance test, the mice were fasted for 16 h and intraperitoneally injected with 10% glucose (1 mg/g of body weight). Glucose levels were then measured after 0, 30, 60, 90, and 120 min by a Glucometer Elite (Bayer Corp., Elkhart, Ind.) (29). For the insulin tolerance test, the mice were fasted for 6 h and injected intraperitoneally with human regular insulin (0.55 units/kg) (Sigma). […]
compound,measurement,setting,value
"CCCCCCCCc1ccc(CCC(N)(CO)CO)cc1 [FTY720, 2-amino-2-[2-(4-octylphenyl)ethyl]propane-1,3-diol]",pancreatic islet size (stereological quantification of islet areas),"pancreatic islets; db/db mice after 6 weeks of treatment, vs untreated group",significantly larger
same,islet morphology,"pancreatic islets; db/db mice, H&E and insulin immunostaining, after 6 and 9 weeks of treatment",normal islet morphology
same,PDX-1 expression relative to islets from untreated mice,PDX-1,6 fold
same,S1P3 expression in islets,S1P3,significantly elevated
same,cancer formation,[1],no cancer formation was observed
same,Bcl-xL mRNA levels,Bcl-xL,significantly increased
same,glucose-stimulated insulin secretion,[2],does not affect
same,glucose levels in treated vs untreated groups after insulin administration,db/db mice; after 70 min in insulin tolerance test,similar
same,insulin sensitivity,"db/db mice; db/db mice fasted 6 h, i.p. human regular insulin 0.55 U/kg",not affected
